Source: US12570988B2, “Aptamers that bind thiamine analogs and derivatives” (MeiraGTx Gene Regulation Limited, priority 2020, dated 2026)

What was measured:
[1] = tested on: 14G4 riboswitch; settings: HEK 293 cells; dose dependent; FIG. 2
From the text: Riboswitch construction: TPP aptamer homologous sequences were obtained from Rfam 12.0 (https://rfam.xfam.org/) and synthesized (Twister Biotech).
To identify aptamers with increased gene regulation activity in response to thiamine analogs as compared to TPPz and TPPm, a putative TPP aptamer with homologous sequence was obtained from Rfam 12.0 (RNA family database RF00059, http://rfam.xfam.org/family/RF00059).

[2] = tested on: riboswitch comprising aptamer 3H4; settings: 12.5 μM; AML12 cells; versus absence of fursultiamine
From the text: (§1) Riboswitch constructs: Alternative splicing riboswitches containing aptamers 3H4 or 15D10, respectively, were inserted at position 308 into the mouse erythropoietin cDNA sequence in construct Con8-Epo (SEQ ID NO:85), resulting in constructs Epo-3H4 (SEQ ID NO:86) and Epo-15D10 (SEQ ID NO:87). Expression of the erythropoietin gene was driven by a cytomegalovirus (CMV) promoter. The riboswitch cassette containing aptamer 6B4 was inserted at position 276 into the cDNA sequence encoding enhanced green fluorescent protein (EGFP) in vector pEGFP-C1 to generate the EGFP-6B4 construct (SEQ ID NO:88). The intron-exon-intron cassette without aptamer sequence was inserted into Con8-Epo to create construct Epo-Con1 (SEQ ID NO:89), serving as a control for constitutive target gene expression.
(§2) Enzyme-linked immunosorbent assay (ELISA) for mouse erythropoietin: AML12 cells were transfected as described in Example 1 with TransIT-X2 transfection reagent (Mirus Bio). Four hours after transfection, AML12 cells were treated with or without fursultiamine at the indicated doses. The supernatants from the transfected cells were collected 24 hours after fursultiamine treatment and were subjected to ELISA for the detection of mEpo in the supernatant following the manufacturer's instruction (R&D).

[3] = tested on: riboswitch comprising aptamer 15D10; settings: 12.5 μM, AML12 cells
From the text: as §1, §2

[4] = tested on: riboswitch 15D10; assay: Luciferase reporter with 15D10 riboswitch (Luci-15D10) in HEK 293 cells; type: cell-based, human; settings: for effect on luciferase expression from Luci-15D10: HEK 293 cells, FIG. 9A, 9C
In short: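 Cells transfected with riboswitch-luciferase plasmid; 4 h later medium replaced with TPP or thiamine analogs (fursultiamine, prosultiamine, bisbentiamine, beclotiamine, sulbutiamine) as inducers.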

[5] = tested on: riboswitch comprising aptamer 6B4
From the text: as §1

[6] = tested on: riboswitch 15D10; assay: Luciferase reporter with 15D10 riboswitch (Luci-15D10) in AML12 cells; type: cell-based, mouse; settings: for luciferase regulation in response to ligand, riboswitch 15D10: AML12 cells, FIG. 6B
[7] = tested on: riboswitch TPPz (A. tabrizica thiC TPP aptamer); assay: Luciferase reporter with TPPz riboswitch in HEK 293 cells; type: cell-based, human; settings: FIG. 1
From the text: (§3) Riboswitch constructs: Aptamers were synthesized by Integrated DNA Technologies, Inc. and Golden Gate cloning strategy (New England Biolabs, NEB) was used to clone the synthesized aptamer sequences into intron-exon-intron cassette to replace the guanine aptamer in the G17 riboswitch cassette (see SEQ ID NO: 15 recited in WO 2016/126747, which is incorporated herein in its entirety) with a TPP aptamer from the Alishewanella tabrizica thiC gene (Microbiol Res. 2017 January; 195:71-80) or a TPP aptamer from the Escherichia coli thiM gene (Structure. 2006 September; 14(9):1459-68), generating riboswitch TPPz and TPPm, respectively.
(§4) Transfection: 3.5×10^4 human embryonic kidney (HEK) 293 cells were plated in a 96-well flat bottom plate the day before transfection. Plasmid DNA (500 ng) was added to a tube or a 96-well U-bottom plate. Separately, TransIT-293 reagent (Mirus; 1.4 μL) was added to 50 μL Optimem I media (Life Technologies) and allowed to sit for 5 minutes at room temperature (RT). Then, 50 μL of this diluted transfection reagent was added to the DNA, mixed, and incubated at RT for 20 min. Finally, 7 μL of this solution was added to a well of cells in the 96-well plate. Four hours after transfection, medium containing transfection solution was replaced by medium containing either TPP, fursultiamine, prosultiamine, bisbentiamine, beclotiamine hydrochloride, or sulbutiamine as aptamer inducers.
(§5) Firefly luciferase assay of cultured cells: Twenty-four hours after media change, plates were removed from the incubator, and equilibrated to RT for several minutes on a lab bench, then aspirated. Glo-lysis buffer (Promega, 100 μL, RT) was added, and the plates allowed to remain at RT for at least 5 minutes. Then, the well contents were mixed by 50 μL trituration, and 20 μL of each sample was mixed with 20 μL of bright-glo reagent (Promega) that had been diluted to 10% in glo-lysis buffer. 96 wells were spaced on an opaque white 384-well plate. Following a 5 min incubation at RT, luminescence was measured using a Tecan machine with 500 ms read time. The luciferase activity was expressed as mean arbitrary light units (ALU)±S.D., and fold induction was calculated as the quotient of the luciferase activity obtained from cells with TPP or analog treatment divided by the luciferase activity obtained from cells without TPP or analog treatment.

[8] = tested on: riboswitch TPPm (E. coli thiM TPP aptamer); assay: Luciferase reporter with TPPm riboswitch in HEK 293 cells; type: cell-based, human; settings: FIG. 1
From the text: as §3, §4, §5

[9] = tested on: riboswitch comprising aptamer 15A5; assay: Luciferase reporter with 15A5 riboswitch in AML12 cells; type: cell-based, mouse; settings: FIG. 6B
[10] = tested on: riboswitch 15D10; assay: Luci-15D10 luciferase reporter in Hep G2 cells; type: cell-based, human; settings: potency compared at 12.5 μM, FIG. 9F
[11] = tested on: riboswitch 15D10; assay: Luci-15D10 luciferase reporter in ARPE-19 cells; type: cell-based, human; settings: FIG. 9E

| SMILES | increase in luciferase expression, 14G4 riboswitch [1] | induction of mEpo expression, Epo-3H4 [2] | level of mEpo from mEpo-15D10 relative to constitutive mEpo-Con1 construct [3] | induction of mEpo expression, Epo-15D10 ([3]; versus absence of fursultiamine) | fold induction at 50 µM ([4]; Homo sapiens, HEK293, 24 h, read-out: Fold increase in riboswitch 15D10-regulated luciferase expression, HEK) | increase in EGFP expression [5] | luciferase regulation in response to ligand, riboswitch 15D10 [6] | fold induction at 50 µM ([6]; Mus musculus, AML12, 24 h, read-out: Fold increase in riboswitch 15D10-regulated luciferase expression, AML) | effect on luciferase expression, riboswitch TPPz [7] | effect on luciferase expression, riboswitch TPPm [8] | luciferase regulation in response to ligand, riboswitch 15A5 [9] | activity in increasing riboswitch 15D10-regulated luciferase expression [10] | effect on luciferase expression from Luci-15D10 [4] | activity in increasing riboswitch 15D10-regulated luciferase expression [11] |
| --- | --- | --- | --- | --- | --- | --- | --- | --- | --- | --- | --- | --- | --- | --- |
| CC(=C(CCO)SSCC1CCCO1)N(C=O)Cc1cnc(C)nc1N (stereo in doubt) [fursultiamine] | 100 fold | ~9 fold | approximately 61.3% | about 40 fold | 446 | 14 fold | robustly regulate luciferase expression | 315 | induce luciferase expression | induce luciferase expression | robustly regulate luciferase expression | – | – | – |
| COc1ccc(C(=O)S/C(CCOP(=O)(O)O)=C(/C)N(C=O)Cc2cnc(C)nc2N)cc1 [Compound M32, (Z)—S-(2-(N-((4-Amino-2-methylpyrimidin-5-yl)methyl)formamido)-5-(phosphonooxy)pent-2-en-3-yl) 4-methoxybenzothioate] | – | – | – | – | – | – | – | – | – | – | – | no activity | no effect on luciferase expression | no activity |
| C/C(=C(\CCOP(=O)(O)O)SC(=O)c1ccccc1)N(C=O)Cc1cnc(C)nc1N [benfotiamine, reference compound] | – | – | – | – | – | – | robustly regulate luciferase expression | – | – | – | robustly regulate luciferase expression | no activity | no effect on luciferase expression | no activity |
